We go through 28 compounds from US9561228B2 (Celgene Avilomics Research, Inc., priority 2013, dated 2017).

For the test, the target named is T1, MEK1 activated ERK1 (Homo sapiens, UniProt P27361).
T1 construct: purchased Millipore (Billerica, Mass.) 14-439-K
Put plainly: Omnia continuous-read kinase assay for potency against MEK1 activated ERK1. In kind it is biochemical. As to conditions: MEK1 activated ERK1, ATP at KM; read-out: ERK1 Omnia WT ATP KM IC50. The text has this: Omnia Assay Protocol for Potency Assessment Against MEK1 Activated ERK1:
The protocol below describes continuous-read kinase assays to measure potency of compounds against activated ERK1 enzyme. The mechanics of the assay platform are best described by the vendor (Invitrogen, Carlsbad, Calif.) on their website at the following URL: invitrogen.com/site/us/en/home.html.
Briefly, a 1.25× stock of ERK1 enzyme (14-439-K) from Millipore (Billerica, Mass.), 5×ATP (AS001A) and ST17-Sox conjugated peptide substrate (KNZ1171C) were prepared in 1× kinase reaction buffer consisting of 20 mM Tris, pH 7.5, 5 mM MgCl2, 1 mM EGTA, 5 mM β-glycerophosphate, 5% glycerol (10× stock, KB002A) and 0.2 mM DTT. 10 μL of ATP/ST17-sox peptide substrate mix was combined with 0.5 μL volume of 100% DMSO and serially diluted compounds were prepared in 100% DMSO in a Corning (#3574) 384-well, white, non-binding surface microtiter plate (Corning, N.Y.). Kinase reactions were started with the addition of 40 μL of ERK1 solution and monitored every 71 seconds for 30-240 minutes at λex360/λem485 in a Synergy plate reader from BioTek (Winooski, Vt.). At the conclusion of each assay, progress curves from each well were examined for linear reaction kinetics and fit statistics (R^2, 95% confidence interval, absolute sum of squares). Initial velocity (0 minutes to ˜30+ minutes) from each reaction was determined from the slope of a plot of relative fluorescence units vs time (minutes or seconds) and then plotted against inhibitor concentration to estimate ^AppIC50 from log [Inhibitor] vs Response, Variable Slope model in GraphPad Prism from GraphPad Software (San Diego, Calif.).
[Reagent] used in optimized protocol:
[ERK1]=4 nM, [ATP]=50 μM, [ST17-Sox]=10 μM (ATP ^appKM 48 μM)
The results of this assay show the degree of inhibition of ERK activity, which is a direct measurement of inhibition of ERK activity. Results from this assay are reported in Table A under the column “ERK1 Omnia WT ATP KM IC50 (nM).”

T1 sequence (P27361 whole entry): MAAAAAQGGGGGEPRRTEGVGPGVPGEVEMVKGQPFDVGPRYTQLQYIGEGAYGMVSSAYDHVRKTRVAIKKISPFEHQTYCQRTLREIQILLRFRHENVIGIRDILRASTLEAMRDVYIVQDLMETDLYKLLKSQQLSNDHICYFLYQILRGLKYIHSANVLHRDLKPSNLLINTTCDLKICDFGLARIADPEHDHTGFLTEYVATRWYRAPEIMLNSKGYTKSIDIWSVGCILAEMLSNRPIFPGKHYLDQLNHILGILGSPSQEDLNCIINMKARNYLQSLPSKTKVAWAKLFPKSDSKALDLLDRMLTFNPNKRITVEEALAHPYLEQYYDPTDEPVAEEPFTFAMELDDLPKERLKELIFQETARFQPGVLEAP

Turning to `C=CC(=O)Nc1ccccc1Nc1nc(N[C@H]2CC[C@H](OC)CC2)ncc1Cl` [Compound I-100], the IC50 – broadly, the concentration that inhibits the measured activity by half – was 101 to 500 nM.

For `C=CC(=O)N[C@@H]1CCCC[C@H]1Oc1nc(Nc2cc(C(=O)NOC)ccc2C)ncc1C(N)=O` (racemic) [Compound I-269, Rac-trans-4-((2-acrylamidocyclohexyl)oxy)-2-((5-(methoxycarbamoyl)-2-methylphenyl)amino)pyrimidine-5-carboxamide], the IC50 is above 1000 nM.

Regarding `C=CC(=O)Nc1ccccc1Nc1nc(Nc2ccc(N(CCCNC(=O)OC(C)(C)C)C(C)=O)cc2C(F)(F)F)ncc1Cl` [Compound I-169, tert-butyl(3-(N-(4-((4-((2-acrylamidophenyl)amino)-5-chloropyrimidin-2-yl)amino)-3-(trifluoromethyl)phenyl)acetamido)propyl)carbamate], the IC50 was in the range of 501 to 999 nM.

For the compound `C=CC(=O)Nc1ccccc1Nc1nc(Nc2ccc(N3CCC[C@H]3C(N)=O)cc2C#N)ncc1Cl` [Compound I-177, (S)-1-(4-((4-((2-acrylamidophenyl)amino)-5-chloropyrimidin-2-yl)amino)-3-cyanophenyl)pyrrolidine-2-carboxamide], the IC50 is 101 to 500 nM.

As to `C=CC(=O)Nc1ccccc1Nc1nc(Nc2ccc(N3CCN(C(=O)CCCC(=O)NCCCOCCOCCOCCCNC(=O)CCCC[C@@H]4SC[C@@H]5NC(=O)N[C@@H]54)CC3)cc2OC(F)F)ncc1Cl` [Compound I-306, 5-(4-(4-((4-((2-acrylamidophenyl)amino)-5-chloropyrimidin-2-yl)amino)-3-(difluoromethoxy)phenyl)piperazin-1-yl)-5-oxo-N-(15-oxo-19-((3aS,4S,6aR)-2-oxohexahydro-1H-thieno[3,4-d]imidazol-4-yl)-4,7,10-trioxa-14-azanonadecyl)pentanamide], the IC50 is 101 to 500 nM.

With `C=CC(=O)Nc1cc(OC)ccc1Nc1nc(Nc2ccc(N(CC)C(C)=O)cc2OC)ncc1Cl` [Compound I-175, N-(2-((5-chloro-2-((4-(N-ethylacetamido)-2-methoxyphenyl)amino)pyrimidin-4-yl)amino)-5-methoxyphenyl)acrylamide], the half-maximal inhibitory concentration (IC50) was in the range of 101 to 500 nM.

`C=CC(=O)Nc1ccccc1Nc1nc(N[C@@H]2CCCN(C(C)=O)C2)ncc1Cl` [Compound I-128, (R)—N-(2-((2-((1-acetylpiperidin-3-yl)amino)-5-chloropyrimidin-4-yl)amino)phenyl)acrylamide]: the IC50 is 101 to 500 nM.

As to `C=CC(=O)N[C@@H]1CCCC[C@H]1Nc1nc(Nc2cc(C(=O)NOCCO)ccc2C)ncc1C(N)=O` (racemic) [Compound I-257, Rac-trans-4-((2-acrylamidocyclohexyl)amino)-2-((5-((2-hydroxyethoxy)carbamoyl)-2-methylphenyl)amino)pyrimidine-5-carboxamide], the IC50 is above 1000 nM.

Consider `C=CC(=O)Nc1ccccc1Nc1nc(N[C@H]2CC[C@@H](O)CC2)ncc1C(F)(F)F` [Compound I-109, N-(2-((2-(cis-(4-hydroxycyclohexyl)amino)-5-(trifluoromethyl)pyrimidin-4-yl)amino)phenyl)acrylamide], for which the IC50 was in the range of 501 to 999 nM.

Regarding `C=CC(=O)Nc1ccccc1Nc1nc(N[C@@H]2CCC[C@H](C(=O)NOC)C2)ncc1Cl` (racemic) [Compound I-203, Rac-cis-3-((4-((2-acrylamidophenyl)amino)-5-chloropyrimidin-2-yl)amino)-N-methoxycyclohexanecarboxamide], the IC50 was 101 to 500 nM.

For the compound `C=CC(=O)Nc1ccccc1Nc1nc(Nc2ccc(N(CC)C(C)=O)cc2C(F)(F)F)ncc1Cl` [Compound I-320], the IC50 lay in the range of 501 to 999 nM.

In the case of `C=CC(=O)N[C@@H]1CCCC[C@H]1Oc1nc(Nc2cc(C(N)=O)ccc2C)ncc1Cl` (racemic) [Compound I-270, Rac-trans-3-((4-((2-acrylamidocyclohexyl)oxy)-5-chloropyrimidin-2-yl)amino)-4-methylbenzamide], the concentration for half-maximal inhibition (IC50) was above 1000 nM.

For the compound `C=CC(=O)Nc1ccccc1Nc1nc(N[C@H]2CCCN(C(=O)[C@@H](O)CO)C2)ncc1C(F)(F)F` [Compound I-50, N-(2-((2-(((S)-1-((S)-2,3-Dihydroxypropanoyl)piperidin-3-yl)amino)-5-(trifluoromethyl)pyrimidin-4-yl)amino)phenyl)acrylamide], the IC50 was in the range of 101 to 500 nM.

As for `C=CC(=O)Nc1ccccc1Nc1nc(N[C@H]2CC[C@H](O)CC2)ncc1C(F)(F)F` [Compound I-1, Trans-N-(2-((2-((4-hydroxycyclohexyl)amino)-5-(trifluoromethyl)pyrimidin-4-yl)amino)phenyl)acrylamide], the IC50 was in the range of 101 to 500 nM.

With `C=CC(=O)Nc1ccccc1Nc1nc(N[C@@H]2CCC[C@H](C(=O)NOC)C2)ncc1C(F)(F)F` (racemic) [Compound I-3, Rac-cis-3-((4-((2-acrylamidophenyl)amino)-5-(trifluoromethyl)pyrimidin-2-yl)amino)-N-methoxycyclohexanecarboxamide], the IC50 is 101 to 500 nM.

In the case of `C=CC(=O)Nc1ccccc1Nc1nc(Nc2cc(C(=O)O)ccc2C)ncc1C(F)(F)F` [Compound I-78, 3-((4-((2-Acrylamidophenyl)amino)-5-(trifluoromethyl)pyrimidin-2-yl)amino)-4-methylbenzoic acid], the IC50 is 501 to 999 nM.

Regarding `C=CC(=O)Nc1ccccc1Nc1nc(N[C@H]2CCCN(C(=O)[C@H](O)CO)C2)ncc1C(F)(F)F` [Compound I-51, N-(2-((2-(((S)-1-((R)-2,3-Dihydroxypropanoyl)piperidin-3-yl)amino)-5-(trifluoromethyl)pyrimidin-4-yl)amino)phenyl)acrylamide], the IC50 was 101 to 500 nM.

With `C=CC(=O)Nc1ccccc1Nc1nc(N[C@H]2CC[C@H](C(N)=O)CC2)ncc1C(F)(F)F` [Compound I-16, 4-((4-((2-acrylamidophenyl)amino)-5-(trifluoromethyl)pyrimidin-2-yl)amino)-trans-cyclohexanecarboxamide], the IC50 was 101 to 500 nM.

As to `C=CC(=O)Nc1ccccc1Nc1nc(N[C@H]2CC[C@H](O)CC2)ncc1Cl` [Compound I-101], the IC50 was 101 to 500 nM.

`C=CC(=O)Nc1ccccc1Nc1nc(Nc2ccc(N3CCNCC3)cc2OC(F)F)ncc1Cl` [Compound I-142, N-(2-((5-chloro-2-((2-(difluoromethoxy)-4-(piperazin-1-yl)phenyl)amino)pyrimidin-4-yl)amino)phenyl)acrylamide]: the 50% inhibitory concentration (IC50) lay in the range of 101 to 500 nM.

`C=CC(=O)N[C@@H]1CCCC[C@H]1Oc1nc(Nc2cc(C(N)=O)ccc2C)ncc1C(N)=O` (racemic) [Compound I-268, Rac-trans-4-((2-acrylamidocyclohexyl)oxy)-2-((5-carbamoyl-2-methylphenyl)amino)pyrimidine-5-carboxamide]: the IC50 was above 1000 nM.

As to `C=CC(=O)Nc1ccccc1Nc1nc(N[C@H]2CC[C@H](C(N)=O)CC2)ncc1Cl` [Compound I-129, trans-4-((4-((2-acrylamidophenyl)amino)-5-chloropyrimidin-2-yl)amino)-cyclohexanecarboxamide], the IC50 lay within 101 to 500 nM.

Regarding `C=CC(=O)Nc1cc(OC)ccc1Nc1nc(Nc2ccc(N3CCC[C@@H]3CO)cc2C#N)ncc1Cl` [Compound I-181, (R)—N-(2-((5-chloro-2-((2-cyano-4-(2-(hydroxymethyl)pyrrolidin-1-yl)phenyl)amino)pyrimidin-4-yl)amino)-5-methoxyphenyl)acrylamide], the IC50 is 501 to 999 nM.

With `C=CC(=O)Nc1ccccc1Nc1nc(N[C@@H]2CCC[C@H](C(=O)NOCCO)C2)ncc1C(F)(F)F` (racemic) [Compound I-4, Rac-cis-3-((4-((2-acrylamidophenyl)amino)-5-(trifluoromethyl)pyrimidin-2-yl)amino)-N-(2-hydroxyethoxyl)cyclohexanecarboxamide], the IC50 lay within 101 to 500 nM.

For the compound `C=CC(=O)Nc1ccccc1Nc1nc(Nc2ccc(N(CCCNC(=O)OC(C)(C)C)C(C)=O)cc2OC)ncc1Cl` [Compound I-173], the IC50 is 501 to 999 nM.

Regarding `C=CC(=O)Nc1cc(OC)ccc1Nc1nc(Nc2ccc(N(CC)C(C)=O)cc2C(F)(F)F)ncc1Cl` [Compound I-176, N-(2-((5-chloro-2-((4-(N-ethylacetamido)-2-(trifluoromethyl)phenyl)amino)pyrimidin-4-yl)amino)-5-methoxyphenyl)acrylamide], the half-inhibitory concentration (IC50) fell in the range of 501 to 999 nM.

As to `C=CC(=O)Nc1cc(OC)ccc1Nc1nc(Nc2ccc(N3CCN(C(C)=O)CC3)cc2OC)ncc1Cl` [Compound I-152, N-(2-((2-((4-(4-acetylpiperazin-1-yl)-2-methoxyphenyl)amino)-5-chloropyrimidin-4-yl)amino)-5-methoxyphenyl)acrylamide], the IC50 was in the range of 501 to 999 nM.

As to `C=CC(=O)Nc1ccccc1Nc1nc(N[C@H]2CCCN(C(=O)C(C)=O)C2)ncc1C(F)(F)F` [Compound I-49, (S)—N-(2-((2-((1-(2-Oxopropanoyl)piperidin-3-yl)amino)-5-(trifluoromethyl)pyrimidin-4-yl)amino)phenyl)acrylamide], the IC50 was in the range of 501 to 999 nM.
